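Where inhibition never reached the appropriate level, the endpoint shown equals the highest concentration tested. Otherwise, values were interpolated linearly from a five-concentration, 48-hour dose response in 96-well plates. GI50 = concentration required for 50% inhibition of growth.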 Activity calls are given as the source filed them. Cut-off read from the data, not from the text of the source: active = GI50 up to about 1.1 µM and inactive = higher.
Columns and labels:
Assay in all cases: DTP human tumour cell line panel, 48 h
KM12 = system: KM12
786-0 = system: 786-0
CAKI-1 = system: CAKI-1
SN12C = system: SN12C
RXF 393 = system: RXF 393
TK-10 = system: TK-10
HOP-62 = system: HOP-62
UACC-62 = system: UACC-62
NCI-H226 = system: NCI-H226
OVCAR-3 = system: OVCAR-3
MOLT-4 = system: MOLT-4
NCI-H23 = system: NCI-H23
LOX IMVI = system: LOX IMVI
NCI-H522 = system: NCI-H522
CCRF-CEM = system: CCRF-CEM
MCF7 = system: MCF7
NCI/ADR-RES = system: NCI/ADR-RES
MDA-N = system: MDA-N
DU-145 = system: DU-145

Measured: GI50

CN1CCC(SC2Cc3cc(Cl)ccc3Sc3ccccc32)CC1 (configuration not stated)
inactive: KM12 10.3 µM | 786-0 13 µM | CAKI-1 10.7 µM | SN12C 14.6 µM | RXF 393 3.66 µM | TK-10 13 µM | HOP-62 > 10 µM | UACC-62 3.33 µM | NCI-H226 15.1 µM | OVCAR-3 13.6 µM | MOLT-4 4.24 µM | NCI-H23 14.1 µM | LOX IMVI 11.5 µM | NCI-H522 13.9 µM

CC1OC(OP(=O)(OCc2ccccc2)OCc2ccccc2)C(OC(=O)c2ccccc2)C(OC(=O)c2ccccc2)C1I (configuration not stated)
inactive: KM12 35 µM | 786-0 50.9 µM | CAKI-1 29.6 µM | SN12C 20.9 µM | RXF 393 12.7 µM | TK-10 > 100 µM | CCRF-CEM 24.5 µM | HOP-62 > 100 µM | UACC-62 48.9 µM | OVCAR-3 46 µM | MOLT-4 17.3 µM | NCI-H23 30.3 µM | LOX IMVI 47.4 µM | NCI-H522 21.4 µM

N#CSCc1cccc(Nc2cc(=O)[nH]c(=O)[nH]2)c1
inactive: KM12 97.1 µM | 786-0 > 100 µM | CAKI-1 > 100 µM | SN12C > 100 µM | RXF 393 > 100 µM | MCF7 7.23 µM | TK-10 > 100 µM | NCI/ADR-RES > 100 µM | HOP-62 > 100 µM | UACC-62 26.7 µM | NCI-H226 48.3 µM | OVCAR-3 54.7 µM | MDA-N 52.4 µM | NCI-H23 > 100 µM | LOX IMVI 92.3 µM | NCI-H522 39.7 µM

COc1cc(-c2nc(SC)nc3c2CCc2ccccc2-3)cc(OC)c1OC
inactive: KM12 65.9 µM | 786-0 50.6 µM | SN12C > 100 µM | RXF 393 36 µM | MCF7 50.1 µM | CCRF-CEM > 100 µM | NCI/ADR-RES 36.3 µM | HOP-62 > 100 µM | UACC-62 82.4 µM | NCI-H226 > 10 µM | OVCAR-3 95.1 µM | MOLT-4 30.5 µM | NCI-H23 > 100 µM | LOX IMVI 91.8 µM | DU-145 79.8 µM

COC12C=CC(CC1)C1C(=O)c3c(C)c(C)n(C)c3C(=O)C12 (configuration not stated)
inactive: KM12 91.4 µM | 786-0 > 100 µM | RXF 393 > 100 µM | MCF7 > 100 µM | TK-10 > 100 µM | CCRF-CEM > 100 µM | NCI/ADR-RES > 100 µM | HOP-62 > 100 µM | UACC-62 40.9 µM | NCI-H226 25.9 µM | OVCAR-3 > 100 µM | MOLT-4 > 100 µM | NCI-H23 99.5 µM | LOX IMVI > 100 µM | DU-145 > 100 µM

CCOc1cc(C=O)c2c(ccc3ccc(OC)c(OC)c32)c1OC
inactive: KM12 27.2 µM | 786-0 > 100 µM | CAKI-1 93.5 µM | SN12C 70.6 µM | RXF 393 > 100 µM | TK-10 > 100 µM | CCRF-CEM 28.2 µM | NCI/ADR-RES 17.5 µM | UACC-62 67.8 µM | NCI-H226 67.1 µM | OVCAR-3 31.6 µM | MOLT-4 13.3 µM | MDA-N 57 µM | NCI-H23 64 µM | LOX IMVI 32.4 µM | NCI-H522 38.5 µM | DU-145 > 100 µM

CC(C)(O)[C@@H]1CC[C@](C)(C2[C@@H](O)C[C@@]3(C)C4C[C@H](OC5OCC(O)C(O)C5O)[C@H]5C(C)(C)[C@@H](OC6OCC(O)C(O)C6OC6OCC(O)C(O)C6O)CC[C@@]56C[C@@]46CC[C@]23C)O1 (some centres not stated)
inactive: KM12 > 100 µM | 786-0 > 100 µM | CAKI-1 > 100 µM | SN12C > 100 µM | RXF 393 > 100 µM | MCF7 > 100 µM | CCRF-CEM > 100 µM | NCI/ADR-RES > 100 µM | HOP-62 > 100 µM | UACC-62 > 100 µM | NCI-H226 > 100 µM | OVCAR-3 > 100 µM | MOLT-4 > 100 µM | NCI-H23 > 100 µM | NCI-H522 > 100 µM | DU-145 > 100 µM
